# Values of other authors, collected in US20090232916A1, “FOOD PRODUCTS FOR DIABETICS” (priority 2004, published 2009).
# Test system: IGT subjects
# Conditions: over a period of three years
smiles,measurement,value
CN(C)C(=N)N=C(N)N [metformin],reduction of the risk of progressing from IGT to diabetes,31%
